Assay results as given in PubChem BioAssay AID230 (DTP/NCI, 2004).
Several values for one entry are separate records, joined by “and”; a condition that tells them apart may be missing. Equal values may be shown once. Inconclusive results and toxic doses are left out.

Test system: C3H/He mice, Gardner lymphosarcoma 6C3HED ip, survival T/C
Assay: NCI In Vivo Anticancer Drug Screen. Data for tumor model Lymphosarcoma Gardner 6C3HED (intraperitoneal) in C3H/He mice
Details: higher = longer survival
Procedure: The antitumor activity of compounds was measured in mice bearing transplantable tumors. Survival or tumor size were measured and the results are expressed as the measurement made in the treated group (T) divided by the measurement made in the vehicle treated control group (C). The tumor model used in this assay is Lymphosarcoma Gardner 6C3HED (intraperitoneal) in C3H/He mice

[1] = endpoint: survival time, mean or median, dose: 125.0 mg/kg/injection, schedule: Q01DX010 (ip), vehicle: saline
[2] = endpoint: survival time, mean or median, dose: 0.5 mg/kg/injection, schedule: Q01DX010 (ip), vehicle: saline
[3] = endpoint: survival time, mean or median, dose: 125.0 micrograms/kg/injection, schedule: Q01DX010 (ip), vehicle: saline
[4] = endpoint: survival time, mean or median, dose: 250.0 micrograms/kg/injection, schedule: Q01DX010 (ip), vehicle: saline

Question: Which results are given for CCC1=C(c2ccc(OC)cc2)CCC(C(=O)O)C1C (stereo not drawn)?
Answer: T/C (endpoint: survival time, mean or median, dose: 12.5 mg/kg/injection, schedule: Q01DX010 (sc), vehicle: steriod suspending solution): 96 % of control; T/C (endpoint: survival time, mean or median, dose: 25.0 mg/kg/injection, schedule: Q01DX010 (sc), vehicle: steriod suspending solution): 107 % of control; T/C (endpoint: survival time, mean or median, dose: 50.0 mg/kg/injection, schedule: Q01DX010 (sc), vehicle: steriod suspending solution): 92 % of control; T/C (endpoint: survival time, mean or median, dose: 100.0 mg/kg/injection, schedule: Q01DX010 (sc), vehicle: steriod suspending solution): 100 % of control

Question: COc1ccc2c(c1OC)C(=O)O[C@@H]2[C@H]1c2c(cc3c(c2OC)OCO3)CCN1C was tested. Which T/C (endpoint: survival time, mean or median, dose: 31.3 mg/kg/injection, schedule: Q01DX010 (ip), vehicle: saline) did it give?
Answer: The T/C was 90 % of control and 107 % of control.

Question: And the T/C (endpoint: survival time, mean or median, dose: 62.5 mg/kg/injection, schedule: Q01DX010 (ip), vehicle: saline)?
Answer: The T/C was 100 % of control.

Question: What about the T/C [1] of the same compound?
Answer: Its T/C is 92 % of control.

Question: Which results are given for CCCSc1ncnc2nc[nH]c12?
Answer: T/C [1]: 95 % of control; T/C (endpoint: survival time, mean or median, dose: 250.0 mg/kg/injection, schedule: Q01DX010 (ip), vehicle: saline): 95 % of control

Question: For CCN(CC)C(=S)S, which T/C [1] is on record?
Answer: Its T/C is 93 % of control.

Question: And the T/C (endpoint: survival time, mean or median, dose: 500.0 mg/kg/injection, schedule: Q01DX010 (ip), vehicle: saline)?
Answer: The T/C was 96 % of control.

Question: CC(N)(CC(=O)O)C(=O)O (stereo not drawn) was tested. Which T/C (endpoint: median survival time, dose: 3.12 mg/kg/injection, schedule: Q01DX009 (ip), vehicle: saline) did it give?
Answer: The T/C was 90 % of control and 98 % of control.

Question: And the T/C (endpoint: median survival time, dose: 6.25 mg/kg/injection, schedule: Q01DX009 (ip), vehicle: saline)?
Answer: The T/C was 96 % of control.

Question: What about the T/C (endpoint: median survival time, dose: 12.5 mg/kg/injection, schedule: Q01DX009 (ip), vehicle: saline) of the same compound?
Answer: The T/C was 92 % of control and 99 % of control.

Question: And the T/C (endpoint: median survival time, dose: 25.0 mg/kg/injection, schedule: Q01DX009 (ip), vehicle: saline)?
Answer: Its T/C is 86 % of control.

Question: And the T/C (endpoint: median survival time, dose: 50.0 mg/kg/injection, schedule: Q01DX009 (ip), vehicle: saline)?
Answer: Its T/C is 101 % of control.

Question: Which results are given for NCC(=O)O?
Answer: T/C (endpoint: median survival time, dose: 187.5 mg/kg/injection, schedule: Q04HX020 (ip), vehicle: saline): 88 % of control; T/C (endpoint: median survival time, dose: 187.5 mg/kg/injection, schedule: Q06HX020 (ip), vehicle: saline): 89 % of control; T/C (endpoint: median survival time, dose: 375.0 mg/kg/injection, schedule: Q04HX020 (ip), vehicle: saline): 88 % of control; T/C (endpoint: median survival time, dose: 375.0 mg/kg/injection, schedule: Q06HX020 (ip), vehicle: saline): 89 % of control; T/C (endpoint: median survival time, dose: 750.0 mg/kg/injection, schedule: Q04HX020 (ip), vehicle: saline): 92 % of control; T/C (endpoint: median survival time, dose: 750.0 mg/kg/injection, schedule: Q06HX020 (ip), vehicle: saline): 93 % of control; T/C (endpoint: median survival time, dose: 1500.0 mg/kg/injection, schedule: Q06HX020 (ip), vehicle: saline): 69 % of control

Question: With N[C@@H](Cc1ccc(N(CCCl)CCCl)cc1)C(=O)O as the compound, how does the T/C [2] read?
Answer: The T/C was 106 % of control.

Question: And the T/C (endpoint: survival time, mean or median, dose: 2.0 mg/kg/injection, schedule: Q01DX010 (ip), vehicle: saline)?
Answer: Its T/C is 150 % of control.

Question: What about the T/C (endpoint: survival time, mean or median, dose: 4.0 mg/kg/injection, schedule: Q01DX010 (ip), vehicle: saline) of the same compound?
Answer: The T/C was 93 % of control.

Question: How did the T/C (endpoint: survival time, mean or median, dose: 62.5 micrograms/kg/injection, schedule: Q01DX010 (ip), vehicle: saline) turn out when CS(=O)(=O)OCCN(CCOS(C)(=O)=O)c1ccc(N=O)cc1 was run?
Answer: The T/C was 107 % of control.

Question: What about the T/C [3] of the same compound?
Answer: Its T/C is 111 % of control.

Question: And the T/C [4]?
Answer: The T/C was 111 % of control.

Question: And the T/C (endpoint: survival time, mean or median, dose: 500.0 micrograms/kg/injection, schedule: Q01DX010 (ip), vehicle: saline)?
Answer: The T/C was 92 % of control.

Question: CC(=O)Nc1ccc2nc3ccc(NC(C)=O)cc3[n+](-c3ccccc3)c2c1 was tested. Which T/C (endpoint: survival time, mean or median, dose: 12.5 mg/kg/injection, schedule: Q01DX010 (ip), vehicle: saline) did it give?
Answer: The T/C was 107 % of control.

Question: What about the T/C (endpoint: survival time, mean or median, dose: 25.0 mg/kg/injection, schedule: Q01DX010 (ip), vehicle: saline) of the same compound?
Answer: Its T/C is 107 % of control.

Question: What about the T/C (endpoint: survival time, mean or median, dose: 100.0 mg/kg/injection, schedule: Q01DX010 (ip), vehicle: saline) of the same compound?
Answer: Its T/C is 89 % of control.

Question: With CN(C)CC(=O)c1ccc(O)c(O)c1 as the compound, how does the T/C (endpoint: survival time, mean or median, dose: 300.0 mg/kg/injection, schedule: Q01DX010 (ip), vehicle: saline) read?
Answer: The T/C was 180 % of control.

Question: What about the T/C (endpoint: survival time, mean or median, dose: 675.0 mg/kg/injection, schedule: Q01DX010 (ip), vehicle: saline) of the same compound?
Answer: The T/C was 106 % of control.

Question: What does the source list for CC(=O)NC1=C(N2CC2)C(=O)C(NC(C)=O)=C(N2CC2)C1=O?
Answer: T/C (endpoint: survival time, mean or median, dose: 0.13 mg/kg/injection, schedule: Q01DX010 (ip), vehicle: saline): 117 % of control; T/C (endpoint: survival time, mean or median, dose: 0.25 mg/kg/injection, schedule: Q01DX010 (ip), vehicle: saline): 92 % of control; T/C [2]: 103 % of control; T/C (endpoint: survival time, mean or median, dose: 63.0 micrograms/kg/injection, schedule: Q01DX010 (ip), vehicle: saline): 170 % of control; T/C [3]: 204 % of control; T/C [4]: 114 % of control

Question: O=C(Nc1ccc(C2=NCCN2)cc1)c1cccc(C(=O)Nc2ccc(C3=NCCN3)cc2)c1 was tested. Which T/C (endpoint: survival time, mean or median, dose: 8.0 mg/kg/injection, schedule: Q01DX010 (ip), vehicle: saline) did it give?
Answer: The T/C was 95 % of control.

Question: What about the T/C (endpoint: survival time, mean or median, dose: 16.0 mg/kg/injection, schedule: Q01DX010 (ip), vehicle: saline) of the same compound?
Answer: The T/C was 304 % of control.

Question: What about the T/C (endpoint: survival time, mean or median, dose: 32.0 mg/kg/injection, schedule: Q01DX010 (ip), vehicle: saline) of the same compound?
Answer: The T/C was 304 % of control.

Question: And the T/C (endpoint: survival time, mean or median, dose: 64.0 mg/kg/injection, schedule: Q01DX010 (ip), vehicle: saline)?
Answer: The T/C was 304 % of control.

Question: What does the source list for CN(C)[C@@H]1C(=O)C(C(N)=O)=C(O)[C@@]2(O)C(=O)C3=C(O)c4c(O)cccc4C[C@H]3C[C@@H]12?
Answer: T/C (endpoint: survival time, mean or median, dose: 3.75 mg/kg/injection, schedule: Q01DX010 (ip), vehicle: saline): 93 % of control; T/C (endpoint: survival time, mean or median, dose: 7.5 mg/kg/injection, schedule: Q01DX010 (ip), vehicle: saline): 90 % of control; T/C (endpoint: survival time, mean or median, dose: 15.0 mg/kg/injection, schedule: Q01DX010 (ip), vehicle: saline): 90 % of control
